Source: US20210244735A1, “COMPOSITIONS AND METHODS FOR TREATING MYELOFIBROSIS” (Impact Biomedicines, Inc., priority 2010, published 2021)
“Also recorded” adds a separate entry of the source. Structures can show the parent of a compound that is named as a salt. Where two headings read alike, the source gives them in different places. Marks after values point to notes of the source that are not given here.

Tested on: subjects with MF
[1] = patients who started at ≥680 mg
[2] = started at ≥680 mg, 24 patients not requiring RBC transfusions at baseline
[3] = subject 106-024, 800/680 mg/day, onset day 87, recovered/resolved
[4] = treatment-emergent laboratory finding, MTD subjects (N=40)
[5] = treatment-emergent, MTD subjects (N=40)

Which “Grades 3/4 asymptomatic increase in creatinine” value (overall) does the source give for `Cc1cnc(Nc2ccc(OCCN3CCCC3)cc2)nc1Nc1cccc(S(=O)(=O)NC(C)(C)C)c1` [TG101348, N-tert-butyl-3-[(5-methyl-2-{[4-(2-pyrrolidin-1-ylethoxy)phenyl]amino}pyrimidin-4-yl)amino]benzenesulfonamide dihydrochloride monohydrate] here?
The value was 0%.

What about the “Grades 3/4 asymptomatic increase in serum lipase” value (overall) of the same compound?
Its value is 10%.

What about the “Gr1/2 serum creatinine elevation” value [1] of the same compound?
The value was 38%.

What about the Gr1/2 transaminitis [1] of the same compound?
Its Gr1/2 transaminitis is 38%.

And the Gr3 neutropenia [1]?
Its Gr3 neutropenia is 15%.

And the Gr3 thrombocytopenia [1]?
The Gr3 thrombocytopenia was 20%.

And the Gr4 neutropenia [1]?
Its Gr4 neutropenia is 0%.

What about the Gr4 thrombocytopenia [1] of the same compound?
Its Gr4 thrombocytopenia is 10%.

And the asymptomatic hyperlipasemia [1]?
Its asymptomatic hyperlipasemia is 33%.

And the “dose-limiting toxicity (DLT)” value (seen at 800 mg/day, dihydrochloride monohydrate)?
Its value is “asymptomatic grade 3 or 4 amylasemia/lipasemia that was reversible; also recorded: asymptomatic grade 3 or 4 hyperamylasemia (with or without hyperlipasemia) that was reversible”.

What about the “Grade 3 anemia” value [2] of the same compound?
The value was 42 % of patients.

And the “Grade 4 anemia” value [2]?
Its value is 8 % of patients.

And the “serious adverse event Neutropenia, CTCAE Severity Grade” value (subject 101-047, 680/680 mg/day, onset day 52, recovered/resolved)?
Its value is 2.

What about the “serious adverse event Depression, CTCAE Severity Grade” value (subject 104-015, 360/520 mg/day, onset day 256, permanently discontinued, not recovered/not resolved) of the same compound?
The value was 3*.

And the “serious adverse event Hyperlipasemia, CTCAE Severity Grade” value (“serious adverse event Hyperlipasemia” below) (subject 105-013, 240/0 mg/day, onset day 356, recovered/resolved)?
Its value is 4.

What about the “serious adverse event Thrombocytopenia, CTCAE Severity Grade” value (subject 105-013, starting dose/dose at event 240/360 mg/day, onset day 215, recovered/resolved) of the same compound?
Its value is 4.

And the “serious adverse event Gallbladder pain, CTCAE Severity Grade” value (subject 105-056, 680/520 mg/day, onset day 95, recovered/resolved with sequelae)?
Its value is 3.

And the “serious adverse event Cerebrovascular accident, CTCAE Severity Grade” value (subject 105-056, 680/680 mg/day, onset day 22, recovered/resolved)?
Its value is 4.

And the “serious adverse event Hyperlipasemia” value (subject 105-059, 680/520 mg/day, onset day 28, recovered/resolved)?
Its value is 3.

And the “serious adverse event Hyperlipasemia” value (subject 105-059, 680/680 mg/day, onset day 8, recovered/resolved)?
Its value is 3.

And the “serious adverse event Dehydration, CTCAE Severity Grade” value (“serious adverse event Dehydration” below) (subject 106-024, 800/400 mg/day, onset day 474, recovered/resolved)?
The value was 3.

What about the “serious adverse event Tumor lysis syndrome, CTCAE Severity Grade” value (subject 106-024, 800/440 mg/day, onset day 366, recovered/resolved) of the same compound?
The value was 3.

And the “serious adverse event Dehydration” value [3]?
Its value is 2.

What about the “serious adverse event Diarrhea, CTCAE Severity Grade” value [3] of the same compound?
The value was 3.

What about the “serious adverse event Nausea, CTCAE Severity Grade” value [3] of the same compound?
Its value is 2.

What about the “serious adverse event Vomiting, CTCAE Severity Grade” value [3] of the same compound?
Its value is 2.

And the “serious adverse event Pleuritic pain, CTCAE Severity Grade” value (subject 106-033, 680/680 mg/day, onset day 8, recovered/resolved)?
Its value is 2.

What about the “serious adverse event Dehydration” value (subject 106-045, 680/440 mg/day, onset day 170, recovered/resolved) of the same compound?
The value was 3.

And the “cytokine rebound upon discontinuation without prior dose reduction or tapering” value (subjects that were discontinued)?
The value was “did not experience “cytokine rebound””.

And the “emergence of transfusion requirement” value (subjects who initiated treatment at 680 mg/day)?
The value was 72%.

And the “emergence of transfusion requirement” value (subjects who initiated treatment at 240-520 mg/day)?
Its value is 33%.

What about the “ALT increased Grade 2” value [4] of the same compound?
Its value is 8 (20%) subjects (%).

And the “ALT increased Grade 3” value [4]?
Its value is 2 (5%) subjects (%).

And the “ALT increased Grade 4” value [4]?
Its value is 0 subjects (%).

What about the “AST increased Grade 2” value [4] of the same compound?
Its value is 5 (13%) subjects (%).

What about the “AST increased Grade 3” value [4] of the same compound?
Its value is 1 (3%) subjects (%).

What about the “AST increased Grade 4” value [4] of the same compound?
The value was 0 subjects (%).

What about the “Creatinine increased Grade 2” value [4] of the same compound?
Its value is 11 (28%) subjects (%).

What about the “Creatinine increased Grade 3” value [4] of the same compound?
Its value is 0 subjects (%).

And the “Creatinine increased Grade 4” value [4]?
Its value is 0 subjects (%).

And the “Hyperamylasemia Grade 2” value [4]?
The value was 0 subjects (%).

What about the “Hyperamylasemia Grade 3” value [4] of the same compound?
The value was 1 (3%) subjects (%).

What about the “Hyperamylasemia Grade 4” value [4] of the same compound?
The value was 1 (3%) subjects (%).

And the “Hyperkalemia Grade 2” value [4]?
The value was 3 (8%) subjects (%).

What about the “Hyperkalemia Grade 3” value [4] of the same compound?
Its value is 2 (5%) subjects (%).

And the “Hyperkalemia Grade 4” value [4]?
The value was 1 (3%) subjects (%).

What about the “Hyperlipasemia Grade 2” value [4] of the same compound?
The value was 4 (10%) subjects (%).

What about the “Hyperlipasemia Grade 3” value [4] of the same compound?
The value was 3 (8%) subjects (%).

And the “Hyperlipasemia Grade 4” value [4]?
The value was 2 (5%) subjects (%).

And the “Hypocalcemia Grade 2” value [4]?
Its value is 8 (20%) subjects (%).

What about the “Hypocalcemia Grade 3” value [4] of the same compound?
The value was 3 (8%) subjects (%).

And the “Hypocalcemia Grade 4” value [4]?
Its value is 0 subjects (%).

And the “Abdominal pain Grade 1” value [5]?
The value was 5 (13%) subjects (%).

What about the “Abdominal pain Grade 2” value [5] of the same compound?
Its value is 0 subjects (%).

What about the “Abdominal pain Grade 3” value [5] of the same compound?
Its value is 0 subjects (%).

And the “Abdominal pain Grade 4” value [5]?
Its value is 0 subjects (%).

And the “Anorexia Grade 1” value [5]?
Its value is 7 (18%) subjects (%).

What about the “Anorexia Grade 2” value [5] of the same compound?
The value was 0 subjects (%).

And the “Anorexia Grade 3” value [5]?
The value was 1 (3%) subjects (%).

And the “Anorexia Grade 4” value [5]?
The value was 0 subjects (%).

And the “Constipation Grade 1” value [5]?
Its value is 6 (15%) subjects (%).

And the “Constipation Grade 2” value [5]?
The value was 1 (3%) subjects (%).

And the “Constipation Grade 3” value [5]?
Its value is 0 subjects (%).

And the “Constipation Grade 4” value [5]?
The value was 0 subjects (%).

What about the “Contusion Grade 1” value [5] of the same compound?
The value was 5 (13%) subjects (%).

What about the “Contusion Grade 2” value [5] of the same compound?
The value was 0 subjects (%).

And the “Contusion Grade 3” value [5]?
The value was 0 subjects (%).

And the “Contusion Grade 4” value [5]?
Its value is 0 subjects (%).

And the “Diarrhea Grade 1” value [5]?
Its value is 21 (53%) subjects (%).

And the “Diarrhea Grade 2” value [5]?
The value was 4 (10%) subjects (%).

What about the “Diarrhea Grade 3” value [5] of the same compound?
The value was 5 (13%) subjects (%).

And the “Diarrhea Grade 4” value [5]?
The value was 0 subjects (%).

And the “Edema peripheral Grade 1” value [5]?
Its value is 7 (18%) subjects (%).

What about the “Edema peripheral Grade 2” value [5] of the same compound?
Its value is 1 (3%) subjects (%).

What about the “Edema peripheral Grade 3” value [5] of the same compound?
Its value is 0 subjects (%).

And the “Edema peripheral Grade 4” value [5]?
The value was 0 subjects (%).

And the “Fatigue Grade 1” value [5]?
The value was 2 (5%) subjects (%).

What about the “Fatigue Grade 2” value [5] of the same compound?
Its value is 3 (8%) subjects (%).

And the “Fatigue Grade 3” value [5]?
Its value is 1 (3%) subjects (%).

What about the “Fatigue Grade 4” value [5] of the same compound?
The value was 0 subjects (%).

And the “Headache Grade 1” value [5]?
Its value is 4 (10%) subjects (%).

And the “Headache Grade 2” value [5]?
The value was 1 (3%) subjects (%).

And the “Headache Grade 3” value [5]?
The value was 0 subjects (%).

And the “Headache Grade 4” value [5]?
The value was 0 subjects (%).

And the “Nausea Grade 1” value [5]?
The value was 20 (50%) subjects (%).

And the “Nausea Grade 2” value [5]?
The value was 6 (15%) subjects (%).

What about the “Nausea Grade 3” value [5] of the same compound?
The value was 2 (5%) subjects (%).

And the “Nausea Grade 4” value [5]?
Its value is 0 subjects (%).

What about the “Neutropenia Grade 3” value [5] of the same compound?
The value was 6 (15%) subjects (%).

What about the “Neutropenia Grade 4” value [5] of the same compound?
Its value is 0 subjects (%).

What about the “Proteinuria Grade 1” value [5] of the same compound?
Its value is 2 (5%) subjects (%).

And the “Proteinuria Grade 2” value [5]?
Its value is 3 (8%) subjects (%).

And the “Proteinuria Grade 3” value [5]?
The value was 0 subjects (%).

And the “Proteinuria Grade 4” value [5]?
Its value is 0 subjects (%).

What about the “Thrombocytopenia Grade 3” value [5] of the same compound?
The value was 8 (20%) subjects (%).

What about the “Thrombocytopenia Grade 4” value [5] of the same compound?
The value was 5 (13%) subjects (%).

What about the “Vomiting Grade 1” value [5] of the same compound?
Its value is 20 (50%) subjects (%).

What about the “Vomiting Grade 2” value [5] of the same compound?
The value was 7 (18%) subjects (%).

What about the “Vomiting Grade 3” value [5] of the same compound?
The value was 1 (3%) subjects (%).

What about the “Vomiting Grade 4” value [5] of the same compound?
The value was 0 subjects (%).
